# Measurements reported in patent publication US9285358B2, “Vitro method for high throughput screening of genotoxic agents in eukaryotic cells” (ANTHEM BIOSCIENCES PVT LTD, priority 2011, dated 2016).
# Read-outs that look alike come from different tables or passages of the source.
# What was measured:
# [1] = test system: HCT116-p21RLuc-GADD153hFLuc-p53Bgal cells; details: 24 h, MA: metabolic activation using S9 fraction mix
# Protocol: The luminescence and absorbance data are transported into Microsoft excel spreadsheet and the fold change in the reporter gene expressions is calculated by normalizing with the data from vehicle treated control wells. The graph is plotted with test compound concentrations on X axis, cell viability percentage (from MTT assay) on primary Y axis and reporter gene fold induction on the secondary Y axis. […] The genotoxic threshold is set at 1.5 fold change (i.e. 50% more than vehicle treated control). The genotoxic LEC is the lowest effective test concentration that produced at least one of the reporter gene inductions of more than 1.5 threshold. The genotoxicity threshold is not calculated for test concentrations that result in less than 50% cell viability. […]
# The genotoxic potential of metabolites of test compounds is assessed by incubating the compound in the Anthem's Genotox sensor cells for 3 hours with S9 of Aroclor 1254-treated rats (1% mix), procured from Moltox, Cat #11-101.5. […]
# 10^3 cells were seeded per well in 100 μl of McCoy's media with 10% FBS was incubated overnight (37° C., 5% CO2, 100% humidity) in a 96-well plates (as two sets). […] The plate was gently shaken for 10 minutes on a microplate shaker and then taken to the microplate reader to obtain the luminescence reading. […]
# [2] = test system: HCT116-p21RLuc-GADD153hFLuc-p53Bgal cells; assay: Anthem's Genotox assay (reporter gene induction p21-RLuc, GADD153-hFLuc, p53-Bgal); details: for Anthem's Genotox assay: LEC in μg/ml (genotoxic lowest effective test concentration): at least one reporter induction above 1.5 fold threshold
# Protocol: The assay protocol standardized by us is described here. A stock of the test compound is prepared in 2% v/v solvents (including but not limited to DMSO or PBS) and this stock is used to make serial dilutions for the assay. […] The test compound is assayed for cell viability by standard cell viability/cytotoxicity assays (for example MTT assay as shown in the graphs).
# The MTT assay is performed using the MTT reagent (Sigma) dissolved in PBS (5 mg/ml). Briefly, the Genotox sensor cells are incubated with ten fold serial dilutions of the test compound in a 96-well microplate. After 24 h of incubation, 10 μl of the MTT solution is added to each well of the 96-well plate and incubated for 1 hour at 37° C. The medium is discarded (in a fume hood) and 100 μl DMSO is added to the wells. The plate is shaken for 10 min and absorbance is measured at 540 nm.
# For the genotoxicity assay, 16 h prior to compound treatment, the engineered Anthem's Genotox sensor cells are seeded in 96-well microplates (10,000 cells per well). […] The test compound is added in two-fold serial dilutions and the microplate is incubated at 37 C, 5% CO2 and 95% humidity for 24 or 48 h depending on the experiment requirements.
# The cells are lysed after 24 or 48 h with the 60 μl of lysis buffer per well (the lysis buffer composition has been optimized at Anthem Biosciences to be compatible with luciferase and beta galactosidase assays; 50 ml of Lysis buffer contains 7.5 ml of 1M HEPES at pH 8.0, 125 μl of Triton X 100, 50 mg of Porcine gelatin, 5 ml of glycerol and 25 μl of Antifoam). For each of the luciferase assays (Renilla and Firefly luciferase) 10 μl of the lysate is used, while 30 μl of the lysate is used for the beta galactosidase assay and total protein is estimated using the remaining 10 μl of the lysate by Bradford reagent.
# The Renilla luciferase assay is performed using luciferase assay buffer (0.5 M NaCl, 0.1 M Potassium phosphate buffer pH 7.2, 1 mM Di-Sodium EDTA, 1 mg/mL porcine gelatin, 50 mM Potassium iodide) containing 1 μg/well coelentrazine (1 mg/ml stock prepared in 100% methanol). The firefly luciferase assay is performed with the same luciferase assay buffer containing 100 μM D luciferin, 150 μM ATP and 80 μM Coenzyme A. The assay plate is gently shaken for 10 minutes on a microplate shaker (to fully mix the contents of each well). Then the plate is taken to the microplate reader and the luminescence data are collected from the microplates. […] The Luminiscence data are collected with an integration time of 10 seconds and a delay of 2 seconds.
# The beta galactosidase assay is carried out with Z assay buffer (50 ml buffer contains 0.4265 g of Na2HPO4, 0.275 g of NaH2PO4, 500 μl of 1M KCl, 50 μl of 1M MgSO4; for every 10 ml, 27 μl of Beta mercaptoethanol is added) and the substrate […] ONPG (1 ml of 10× ONPG stock-20 mg/ml). Once the yellow colour develops, 50 μl 1M Na2CO3 is added per well and the reading is taken at A420.
# The luminescence and absorbance data are transported into Microsoft excel spreadsheet and the fold change in the reporter gene expressions is calculated by normalizing with the data from vehicle treated control wells. The graph is plotted with test compound concentrations on X axis, cell viability percentage (from MTT assay) on primary Y axis and reporter gene fold induction on the secondary Y axis. […] The genotoxicity threshold is not calculated for test concentrations that result in less than 50% cell viability. […]
# [3] = assay time 24 h, no metabolic activation
SMILES,"Anthem's Genotox assay: LEC in μg/ml (genotoxic lowest effective test concentration) [2, 3]",Anthem's Genotox assay: promoter(s) that was(were) induced [2],also measured
O=P1(N(CCCl)CCCl)NCCCO1 (stereo not shown) [Cyclophosphamide],,,Anthem's Genotox assay: LEC in μg/ml (genotoxic lowest effective test concentration) [1]: > 55.82 µg/mL; Anthem's Genotox assay: Result (assay time in h) [1]: + (positive for genotoxicity)
CC1COc2c(N3CCN(C)CC3)c(F)cc3c(=O)c(C(=O)O)cn1c23 (stereo not shown) [Ofloxacin],750.0 µg/mL,,"Anthem's Genotox assay: Result (assay time in h) ([2]; assay time 24 h, no metabolic activation, positive when reporter gene induction over 1.5 fold): + (positive for genotoxicity)"
O=c1c(O)c(-c2ccc(O)c(O)c2)oc2cc(O)cc(O)c12 [Querceti3n],,GADD153,
COc1cc([C@@H]2c3cc4c(cc3[C@@H](O[C@@H]3O[C@@H]5CO[C@@H](C)O[C@H]5[C@H](O)[C@H]3O)[C@H]3COC(=O)[C@H]23)OCO4)cc(OC)c1O [Etoposide],6.25 µg/mL,,
Nc1ccn([C@@H]2O[C@H](CO)[C@@H](O)[C@@H]2O)c(=O)n1 [AraC arabinoside],,p21,
